Experimental data from US20160242416A1, “FUNGICIDAL ISOXAZOLINE CARBINOLS” (E I DU PONT DE NEMOURS AND COMPANY, priority 2015, published 2016).

Experiments:
Phytophthora infestans = type: in vivo; details: 50 ppm (asterisk); tomato late blight; 100 = 100% disease control, 0 = no control
Botrytis cinerea = assay: Test B: gray mold, preventive spray on tomato seedlings; details: 100 = 100% disease control; for Test B rating (% disease control): gray mold on tomato, 0 = no control; for Test B disease control rating: 10 ppm test solution, 0 = no control relative to controls
[1] = test system: Puccinia recondita f sp. tritici; assay: Test F: wheat leaf rust, preventive spray on wheat seedlings; details: 100 = 100% disease control; for Test F rating (% disease control): wheat leaf rust, 0 = no control; for Test F disease control rating: 10 ppm test solution, 0 = no control relative to controls
From the text: (§1) General protocol for preparing test solutions for Tests A-G: the test compounds were first dissolved in acetone in an amount equal to 3% of the final volume and then suspended at the desired concentration (in ppm) in acetone and purified water (50/50 mix by volume) containing 250 ppm of the surfactant PEG400 (polyhydric alcohol esters). The resulting test suspensions were then used in Tests A-G. Compounds were sprayed at a concentration of 50 ppm (*) or 10 ppm to the point of run-off on the test plants, the equivalent of a rate of 200 g/ha or 40 g/ha, respectively.
The test solution was sprayed to the point of run-off on wheat seedlings. The following day the seedlings were inoculated with a spore suspension of Puccinia recondita f sp. tritici; (the causal agent of wheat leaf rust) and incubated in a saturated atmosphere at 20° C. for 24 h, and then moved to a growth chamber at 20° C. for 6 days, after which time visual disease ratings were made.
A dash (-) indicates no test results. Compounds with an asterisks (*) were applied at a concentration of 50 ppm, otherwise test solutions were applied at 10 ppm.

Zymoseptoria tritici = assay: Test E: wheat leaf blotch, preventive spray on wheat seedlings; details: 100 = 100% disease control; for Test E rating (% disease control): wheat leaf blotch, 0 = no control; for Test E disease control rating: 10 ppm test solution, 0 = no control relative to controls
From the text: as §1
The test solution was sprayed to the point of run-off on wheat seedlings. The following day the seedlings were inoculated with a spore suspension of Zymoseptoria tritici (the causal agent of wheat leaf blotch) and incubated in a saturated atmosphere at 24° C. for 48 h, and then moved to a growth chamber at 20° C. for 17 days, after which time visual disease ratings were made.
(§2) Compounds with an asterisks (*) were applied at a concentration of 50 ppm, otherwise test solutions were applied at 10 ppm.

Stagonospora nodorum = assay: Test D: wheat glume blotch, preventive spray on wheat seedlings; details: 100 = 100% disease control; for Test D rating (% disease control): wheat glume blotch, 0 = no control; for Test D disease control rating: 10 ppm test solution, 0 = no control relative to controls
From the text: as §1
The test solution was sprayed to the point of run-off on wheat seedlings. The following day the seedlings were inoculated with a spore suspension of Stagonospora nodorum (also known as Septoria nodorum; the causal agent of wheat glume blotch) and incubated in a saturated atmosphere at 20° C. for 48 h, and then moved to a growth chamber at 20° C. for 6 days, after which time visual disease ratings were made.
as §2

[2] = test system: Erysiphe graminis f sp. tritici; assay: Test G: wheat powdery mildew, preventive spray on wheat seedlings; details: 100 = 100% disease control; for Test G rating (% disease control): wheat powdery mildew, 0 = no control; for Test G disease control rating: 10 ppm test solution, 0 = no control relative to controls
From the text: as §1
The test solution was sprayed to the point of run-off on wheat seedlings. The following day the seedlings were inoculated with a spore dust of Erysiphe graminis f sp. tritici, (the causal agent of wheat powdery mildew) and incubated in a growth chamber at 20° C. for 8 days, after which time visual disease ratings were made.
as §2

OC(Cn1cncn1)(C1=NOC(c2c(F)cccc2F)C1)c1ccccc1 (mixture of isomers) [Compound 1]
Test C rating (% disease control) (Phytophthora infestans): 0%
Test B rating (% disease control) (Botrytis cinerea; 50 ppm (asterisk)): 0%
Test F rating (% disease control) ([1]; 50 ppm (asterisk)): 99%
Test E rating (% disease control) (Zymoseptoria tritici; 50 ppm (asterisk)): 18%
Test D rating (% disease control) (Stagonospora nodorum; 50 ppm (asterisk)): 99%
Test G rating (% disease control) ([2]; 50 ppm (asterisk)): 100%

OC(Cn1cncn1)(C1=NOC(c2ccccc2)C1)c1ccccc1 (mixture of isomers) [Compound 115]
Test C rating (% disease control) (Phytophthora infestans): 0%
Test B rating (% disease control) (Botrytis cinerea; 50 ppm (asterisk)): 51%
Test F rating (% disease control) ([1]; 50 ppm (asterisk)): 68%
Test E rating (% disease control) (Zymoseptoria tritici; 50 ppm (asterisk)): 0%
Test D rating (% disease control) (Stagonospora nodorum; 50 ppm (asterisk)): 100%
Test G rating (% disease control) ([2]; 50 ppm (asterisk)): 99%

OC(Cn1cncn1)(C1=NOC(c2ccc(F)cc2)C1)c1ccccc1 (mixture of isomers) [Compound 116]
Test C rating (% disease control) (Phytophthora infestans): 0%
Test B rating (% disease control) (Botrytis cinerea; 50 ppm (asterisk)): 0%
Test F rating (% disease control) ([1]; 50 ppm (asterisk)): 80%
Test E rating (% disease control) (Zymoseptoria tritici; 50 ppm (asterisk)): 0%
Test D rating (% disease control) (Stagonospora nodorum; 50 ppm (asterisk)): 100%
Test G rating (% disease control) ([2]; 50 ppm (asterisk)): 99%

OC(Cn1cncn1)(C1=NOC(c2ccc(F)cc2)C1)c1ccc(F)cc1 (single isomer, unassigned) [Compound 119]
Test C rating (% disease control) (Phytophthora infestans): 0%
Test B rating (% disease control) (Botrytis cinerea; 50 ppm (asterisk)): 0%
Test F rating (% disease control) ([1]; 50 ppm (asterisk)): 41%
Test E rating (% disease control) (Zymoseptoria tritici; 50 ppm (asterisk)): 0%
Test G rating (% disease control) ([2]; 50 ppm (asterisk)): 100%

CC(C)(C)C(O)(Cn1cncn1)C1=NOC(COc2ccc(-n3cc(Br)cn3)cc2)C1 (stereo not shown) [Compound 30]
Test B rating (% disease control) (Botrytis cinerea; 10 ppm): 99%
Test F rating (% disease control) ([1]; 10 ppm): 79%
Test E rating (% disease control) (Zymoseptoria tritici; 10 ppm): 0%
Test D rating (% disease control) (Stagonospora nodorum; 10 ppm): 0%
Test G rating (% disease control) ([2]; 10 ppm): 100%

CC(C)(C)C(O)(Cn1cncn1)C1=NOC(COc2ccc(-n3cc(Cl)cn3)cc2)C1 (stereo not shown) [Compound 31]
Test B rating (% disease control) (Botrytis cinerea; 10 ppm): 0%
Test F rating (% disease control) ([1]; 10 ppm): 0%
Test E rating (% disease control) (Zymoseptoria tritici; 10 ppm): 0%
Test D rating (% disease control) (Stagonospora nodorum; 10 ppm): 0%
Test G rating (% disease control) ([2]; 10 ppm): 100%

CC#CC(O)(Cn1cncn1)C1=NOC(c2ccc(Cl)cc2)C1 (stereo not drawn) [Compound 104, α-[5-(4-chlorophenyl)-4,5-dihydro-3-isoxazolyl]-α-1-propyn-1-yl-1H-1,2,4-triazole-1-ethanol]
Test B rating (% disease control) (Botrytis cinerea; 10 ppm): 0%
Test F rating (% disease control) ([1]; 10 ppm): 97%
Test E rating (% disease control) (Zymoseptoria tritici; 10 ppm): 0%
Test D rating (% disease control) (Stagonospora nodorum; 10 ppm): 100%
Test G rating (% disease control) ([2]; 10 ppm): 93%

CC(C)(C)C(O)(Cn1cncn1)C1=NOC(COc2ccc(Cl)cc2)C1 (stereo not drawn) [Compound 174, α-[5-[(4-chlorophenoxy)methyl]-4,5-dihydro-3-isoxazolyl]-α-(1,1-dimethylethyl)-1H-1,2,4-triazole-1-ethanol]
Test B rating (% disease control) (Botrytis cinerea; 10 ppm): 58%
Test F rating (% disease control) ([1]; 10 ppm): 100%
Test E rating (% disease control) (Zymoseptoria tritici; 10 ppm): 12%
Test D rating (% disease control) (Stagonospora nodorum; 10 ppm): 100%
Test G rating (% disease control) ([2]; 10 ppm): 100%

CC(C)(C)C(O)(Cn1cncn1)C1=NOC(COc2ccc(Cl)cc2)C1 (stereo not drawn) [Compound 175, α-[5-[(4-chlorophenoxy)methyl]-4,5-dihydro-3-isoxazolyl]-α-(1,1-dimethylethyl)-1H-1,2,4-triazole-1-ethanol]
Test B rating (% disease control) (Botrytis cinerea; 10 ppm): 0%
Test F rating (% disease control) ([1]; 10 ppm): 100%
Test E rating (% disease control) (Zymoseptoria tritici; 10 ppm): 1%
Test D rating (% disease control) (Stagonospora nodorum; 10 ppm): 100%
Test G rating (% disease control) ([2]; 10 ppm): 100%

OC(Cn1cncn1)(C1=NOC2c3ccccc3CCC12)c1ccc(Cl)cc1 (stereo not shown) [Compound 222]
Test B disease control rating (Botrytis cinerea): 9%
Test F disease control rating [1]: 100%
Test E disease control rating (Zymoseptoria tritici): 23%
Test D disease control rating (Stagonospora nodorum): 50%
Test G disease control rating [2]: 99%

OC(Cn1cncn1)(C1=NOC2c3ccccc3CCC12)c1ccc(Cl)cc1 (stereo not shown) [Compound 223]
Test B disease control rating (Botrytis cinerea): 0%
Test F disease control rating [1]: 100%
Test E disease control rating (Zymoseptoria tritici): 63%
Test D disease control rating (Stagonospora nodorum): 0%
Test G disease control rating [2]: 99%
